41 compounds from patent US8536332B2, “Modulating signal transduction pathways with substituted pyridol [2,3-b] pyrazines” (Aeterna Zentaris GmbH, priority 2007, dated 2013) can be followed below.

SMILES strings stand for the structures. Where only a bound is given, the exact number is not on record here.

The compound `COc1cc(Nc2cnc3ccc(NC(=S)NC4CCCCCCC4)nc3n2)cc(OC)c1OC` [Compound 691, 1-Cyclooctyl-3-[3-(3,4,5-trimethoxy-phenylamino)-pyrido[2,3-b]pyrazin-6-yl]-thiourea] showed a melting point of 250 °C.

Turning to `COc1cc(Nc2cnc3ccc(NC(=S)NCCN4CCOCC4)nc3n2)cc(OC)c1OC` [Compound 703, 1-(2-Morpholin-4-yl-ethyl)-3-[3-(3,4,5-trimethoxy-phenylamino)-pyrido[2,3-b]pyrazin-6-yl]-thiourea], the melting point came out at 196 °C.

For the compound `CCNC(=O)Nc1ccc2ncc(-c3cnn(CC(C)C)c3)nc2n1` [Compound 59, 1-Ethyl-3-[3-(1-isobutyl-1H-pyrazol-4-yl)-pyrido[2,3-b]pyrazin-6-yl]-urea], the melting point is 189 to 191 °C.

`CCNC(=O)Nc1cnc2ccc(-c3cccc(N)c3)nc2n1` [Compound 179, 1-[6-(3-Amino-phenyl)-pyrido[2,3-b]pyrazin-3-yl]-3-ethyl-urea]: the melting point was > 320 °C.

In the case of `CCNC(=S)Nc1cnc2ccc(Nc3ccc(C)cc3)nc2n1` [Compound 25, 1-Ethyl-3-(6-p-tolylamino-pyrido[2,3-b]pyrazin-3-yl)-thiourea], the melting point is 195 °C.

Consider `O=C(Nc1ccc(N2C(=O)C=CC2=O)cc1)Nc1cnc2ccc(-c3cc(Cl)c(O)c(Cl)c3)nc2n1` [Compound 565, 1-[6-(3,5-Dichloro-4-hydroxy-phenyl)-pyrido[2,3-b]pyrazin-3-yl]-3-[4-(2,5-dioxo-2,5-dihydro-pyrrol-1-yl)-phenyl]-urea], for which the melting point was > 300 °C.

As for `CCNC(=O)Nc1ccc2ncc(-c3cc(C)c(OC)c(C)c3)nc2n1` [Compound 80, 1-Ethyl-3-[3-(4-methoxy-3,5-dimethyl-phenyl)-pyrido[2,3-b]pyrazin-6-yl]-urea], the melting point was in the range of 255.3 to 258.2 °C.

In the case of `CCNC(=O)Nc1ccc2ncc(-c3ccc(C)c(C)c3)nc2n1` [Compound 142, 1-[3-(3,4-Dimethyl-phenyl)-pyrido[2,3-b]pyrazin-6-yl]-3-ethyl-urea], the melting point is 247 to 249 °C.

As for `COc1cc(-c2ccc3ncc(NC(=O)NC4CCN(C(=O)OCc5ccccc5)CC4)nc3n2)ccc1O` [Compound 606, 4-{3-[6-(4-Hydroxy-3-methoxy-phenyl)-pyrido[2,3-b]pyrazin-3-yl]-ureido}-piperidine-1-carboxylic acid benzyl ester], the melting point lay in the range of 210 to 212 °C.

As for `CCNC(=O)Nc1ccc2ncc(-c3cc4ccccc4[nH]3)nc2n1` [Compound 70, 1-Ethyl-3-[3-(1H-indol-2-yl)-pyrido[2,3-b]pyrazin-6-yl]-urea], the melting point was > 300 °C.

Take `CCNC(=S)Nc1ccc2ncc(Nc3ccc(C(C)=O)cc3)nc2n1` [Compound 467, 1-[3-(4-Acetyl-phenylamino)-pyrido[2,3-b]pyrazin-6-yl]-3-ethyl-thiourea]: the melting point was 232 °C.

With `COc1ccc(-c2ccc3ncc(NC(=O)Nc4ccccc4)nc3n2)cc1OC` [Compound 580, 1-[6-(3,4-Dimethoxy-phenyl)-pyrido[2,3-b]pyrazin-3-yl]-3-phenyl-urea], the melting point was in the range of 248 to 251 °C.

`CCNC(=S)Nc1cnc2ccc(-c3cc(OC)c(OC)c(OC)c3)nc2n1` [Compound 650, 1-Ethyl-3-[6-(3,4,5-trimethoxy-phenyl)-pyrido[2,3-b]pyrazin-3-yl]-thiourea] showed a melting point of 218 to 219 °C.

With `CCNC(=O)Nc1ccc2ncc(-c3cc(Cl)cc(C)c3F)nc2n1` [Compound 96, 1-[3-(5-Chloro-2-fluoro-3-methyl-phenyl)-pyrido[2,3-b]pyrazin-6-yl]-3-ethyl-urea], the melting point is 258 to 259 °C.

Regarding `CC(C)NC(=O)Nc1cnc2ccc(-c3cc(Cl)c(O)c(Cl)c3)nc2n1` [Compound 552, 1-[6-(3,5-Dichloro-4-hydroxy-phenyl)-pyrido[2,3-b]pyrazin-3-yl]-3-isopropyl-urea], the melting point is 259 to 261 °C.

For the compound `CC(C)Oc1cccc(Nc2cnc3ccc(NC(=O)NC4CC4)nc3n2)c1` [Compound 49, 1-Cyclopropyl-3-[3-(3-isopropoxy-phenylamino)-pyrido[2,3-b]pyrazin-6-yl]-urea], the melting point was found to be 134 °C.

On to `CCNC(=O)Nc1ccc2ncc(-c3cccc4c3oc3ccccc34)nc2n1` [Compound 71, 1-(3-Dibenzofuran-4-yl-pyrido[2,3-b]pyrazin-6-yl)-3-ethyl-urea], for which the melting point is > 300 °C.

Compound `CCNC(=O)Nc1ccc2ncc(-c3cccc(OC)c3OC)nc2n1` [Compound 68, 1-[3-(2,3-Dimethoxy-phenyl)-pyrido[2,3-b]pyrazin-6-yl]-3-ethyl-urea] gave a melting point of 182 to 185 °C.

`CCNC(=O)Nc1ccc2ncc(-c3ccccc3OCC)nc2n1` [Compound 102, 1-[3-(2-Ethoxy-phenyl)-pyrido[2,3-b]pyrazin-6-yl]-3-ethyl-urea] came in with a melting point of 220 to 222 °C.

Take `CCNC(=O)Nc1ccc2ncc(-c3cnc(N)nc3)nc2n1` [Compound 72, 1-[3-(2-Amino-pyrimidin-5-yl)-pyrido[2,3-b]pyrazin-6-yl]-3-ethyl-urea]: the melting point is > 300 °C.

Regarding `COc1cc(Nc2cnc3ccc(NC(=S)NCc4ccco4)nc3n2)cc(OC)c1OC` [Compound 708, 1-Furan-2-ylmethyl-3-[3-(3,4,5-trimethoxy-phenylamino)-pyrido[2,3-b]pyrazin-6-yl]-thiourea], the melting point turned out to be 228 °C.

Consider `CCNC(=O)Nc1ccc2ncc(-c3cnc4[nH]ccc4c3)nc2n1` [Compound 61, 1-Ethyl-3-[3-(1H-pyrrolo[2,3-b]pyridin-5-yl)-pyrido[2,3-b]pyrazin-6-yl]-urea], for which the melting point lay within 270 to 274 °C.

In turn, `CCNC(=O)Nc1ccc2ncc(-c3cc(Cl)ccc3OC)nc2n1` [Compound 91, 1-[3-(5-Chloro-2-methoxy-phenyl)-pyrido[2,3-b]pyrazin-6-yl]-3-ethyl-urea] had a melting point of 254 to 257 °C.

`CCNC(=O)Nc1cnc2ccc(Nc3ccc(OC)c(Cl)c3)nc2n1` [Compound 201, 1-[6-(3-Chloro-4-methoxy-phenylamino)-pyrido[2,3-b]pyrazin-3-yl]-3-ethyl-urea] showed a melting point of 260 °C.

Take `Cc1cc(-c2ccc3ncc(NC(=O)NC4CCCCC4)nc3n2)cc(C)c1O` [Compound 584]: the melting point fell in the range of 247 to 250 °C.

Compound `CCNC(=O)Nc1ccc2ncc(-c3ccc(OP(=O)(OCC)OCC)c(OC)c3)nc2n1` showed a melting point of 182 to 184 °C.

Turning to `CCNC(=S)Nc1cnc2ccc(Nc3ccc(O)c(OC)c3)nc2n1` [Compound 203, 1-Ethyl-3-[6-(4-hydroxy-3-methoxy-phenylamino)-pyrido[2,3-b]pyrazin-3-yl]-thiourea], the melting point stood at 166 °C.

`C=CCNC(=O)Nc1cnc2ccc(-c3cc(C)c(O)c(C)c3)nc2n1` [Compound 587, 1-Allyl-3-[6-(4-hydroxy-3,5-dimethyl-phenyl)-pyrido[2,3-b]pyrazin-3-yl]-urea] yielded a melting point of 210 to 212 °C.

Take `CCNC(=O)Nc1ccc2ncc(-c3cc(Cl)cc(Cl)c3)nc2n1` [Compound 90, 1-[3-(3,5-Dichloro-phenyl)-pyrido[2,3-b]pyrazin-6-yl]-3-ethyl-urea]: the melting point fell in the range of 298 to 305 °C.

Turning to `COc1cc(-c2ccc3ncc(NC(=O)NC4CCCCC4)nc3n2)ccc1O` [Compound 17, 1-Cyclohexyl-3-[6-(4-hydroxy-3-methoxy-phenyl)-pyrido[2,3-b]pyrazin-3-yl]-urea], the melting point lay within 232 to 235 °C.

In the case of `CCNC(=O)Nc1cnc2ccc(-c3cc(OC)c(OC)c(OC)c3)nc2n1` [Compound 23, 1-Ethyl-3-[6-(3,4,5-trimethoxy-phenyl)-pyrido[2,3-b]pyrazin-3-yl]-urea], the melting point is > 230 °C.

The compound `CCNc1ccc2ncc(Nc3cc(OC)c(OC)c(OC)c3)nc2n1` [Compound 733, N*6*-Ethyl-N*3*- (3,4,5-trimethoxy-phenyl)-pyrido[2,3-b]pyrazine-3,6-diamine] registered a melting point of 110 °C.

`CCNC(=S)Nc1cnc2ccc(Nc3ccc(C4(C#N)CCCC4)cc3)nc2n1` [Compound 257, 1-{6-[4-(1-Cyano-cyclopentyl)-phenylamino]-pyrido[2,3-b]pyrazin-3-yl}-3-ethyl-thiourea] yielded a melting point of 216 °C.

Turning to `CCCNC(=O)Nc1cnc2ccc(-c3ccc(O)c(OC)c3)nc2n1` [Compound 16, 1-[6-(4-Hydroxy-3-methoxy-phenyl)-pyrido[2,3-b]pyrazin-3-yl]-3-propyl-urea], the melting point was 220 to 222 °C.

Compound `CCNC(=O)Nc1ccc2ncc(-c3cccnc3OC(C)C)nc2n1` [Compound 51, 1-Ethyl-3-[3-(2-isopropoxy-pyridin-3-yl)-pyrido[2,3-b]pyrazin-6-yl]-urea] had a melting point of 231 to 232 °C.

`CCNC(=O)Nc1ccc2ncc(-c3cncn3C)nc2n1` [Compound 53, 1-Ethyl-3-[3-(3-methyl-3H-imidazol-4-yl)-pyrido[2,3-b]pyrazin-6-yl]-urea] displayed a melting point of 257 to 259 °C.

`CCNC(=S)Nc1ccc2ncc(Nc3ccccc3O)nc2n1` [Compound 149, 1-Ethyl-3-[3-(2-hydroxy-phenylamino)-pyrido[2,3-b]pyrazin-6-yl]-thiourea]: the melting point amounted to 280 °C.

Regarding `COc1cc(-c2ccc3ncc(NC(=O)Nc4ccc(N(C)C)cc4)nc3n2)ccc1O` [Compound 602, 1-(4-Dimethylamino-phenyl)-3-[6-(4-hydroxy-3-methoxy-phenyl)-pyrido[2,3-b]pyrazin-3-yl]-urea], the melting point lay in the range of 287 to 290 °C.

For the compound `CCNC(=S)Nc1cnc2ccc(Nc3ccc(OC)c(O)c3)nc2n1` [Compound 205, 1-Ethyl-3-[6-(3-hydroxy-4-methoxy-phenylamino)-pyrido[2,3-b]pyrazin-3-yl]-thiourea], the melting point turned out to be 166 °C.

For `CCNC(=O)Nc1ccc2ncc(-c3cccc(NS(C)(=O)=O)c3)nc2n1` [Compound 120, N-{3-[6-(3-Ethyl-ureido)-pyrido[2,3-b]pyrazin-3-yl]-phenyl}-methanesulfonamide], the melting point lay within 224 to 228 °C.

The compound `CCNC(=O)Nc1cnc2ccc(N3CCC(O)CC3)nc2n1` [Compound 235, 1-Ethyl-3-[6-(4-hydroxy-piperidin-1-yl)-pyrido[2,3-b]pyrazin-3-yl]-urea] registered a melting point of 249 to 251 °C.

The term melting point denotes the temperature of the solid-liquid transition.
